In the NIST ThermoML archive (doi:10.1016/j.fluid.2006.11.005):

Key:
[1] = 101.33 kPa, Liquid
[2] = xn = mol fraction of the nth substance listed; settings: 101.33 kPa, Liquid

ClC(Cl)Cl [trichloromethane]
[1]
Settings | mass density [kg/m3]
288.15 K | 1498.08
293.15 K | 1488.64
298.15 K | 1479.15
303.15 K | 1469.61
308.15 K | 1460.03
313.15 K | 1450.41

c1ccccc1 [benzene] + ClC(Cl)Cl
[2], x2 = 0
Settings | mass density [kg/m3]
288.15 K | 884.246
293.15 K | 878.918
298.15 K | 873.582
303.15 K | 868.233
308.15 K | 862.871
313.15 K | 857.498

ClC(Cl)Cl [trichloromethane] + c1ccccc1
mass density [kg/m3], [2]
Settings | 288.15 K | 293.15 K | 298.15 K | 303.15 K | 308.15 K | 313.15 K
x1 = 0.1001 | 939.224 | 933.584 | 927.935 | 922.271 | 916.586 | 910.883
x1 = 0.2 | 995.529 | 989.568 | 983.589 | 977.59 | 971.567 | 965.527
x1 = 0.3072 | 1057.3 | 1050.96 | 1044.61 | 1038.23 | 1031.82 | 1025.38
x1 = 0.3995 | 1111.96 | 1105.29 | 1098.58 | 1091.85 | 1085.08 | 1078.27
x1 = 0.4997 | 1172.45 | 1165.38 | 1158.28 | 1151.15 | 1143.98 | 1136.78
x1 = 0.6 | 1234.48 | 1226.99 | 1219.47 | 1211.92 | 1204.33 | 1196.74
x1 = 0.6652 | 1275.68 | 1267.9 | 1260.09 | 1252.24 | 1244.34 | 1236.41
x1 = 0.7991 | 1362.32 | 1353.91 | 1345.46 | 1336.97 | 1328.42 | 1319.82
x1 = 0.8009 | 1363.45 | 1355.03 | 1346.58 | 1338.09 | 1329.56 | 1321.04
x1 = 0.9 | 1429.59 | 1420.68 | 1411.71 | 1402.7 | 1393.63 | 1384.52
x1 = 1 | 1498.08 | 1488.64 | 1479.15 | 1469.61 | 1460.03 | 1450.41

c1ccccc1 [benzene]
[1]
Settings | mass density [kg/m3]
288.15 K | 884.246
293.15 K | 878.918
298.15 K | 873.582
303.15 K | 868.233
308.15 K | 862.871
313.15 K | 857.498

CCO [ethanol] + ClC(Cl)Cl
[2], x1 = 1
Settings | mass density [kg/m3]
288.15 K | 793.721
293.15 K | 789.454
298.15 K | 785.164
303.15 K | 780.853
308.15 K | 776.51
313.15 K | 772.138

CCO [ethanol]
[1]
Settings | mass density [kg/m3]
288.15 K | 793.721
293.15 K | 789.454
298.15 K | 785.164
303.15 K | 780.853
308.15 K | 776.51
313.15 K | 772.138
